These results are taken from paper PMC6624297 (Cell Death & Disease, 2019).

Structures are written as SMILES.

One series concerns H460 cells. The series can be described thus: MTT assay H460. In kind it is cell-based, human. How it is done:
Details are given in Supplementary Materials and Methods. Using probability unit and weighted regression method to calculate the IC50 value of compounds.
Total cells in the logarithmic growth phase were collected, digested using 0.25% pancreatic enzymes, and then diluted into single-cell suspensions using phosphate-buffered solution (PBS). These cells were seeded into 96-well plates at 4× 10^3-5× 10^3 cells per well (100 µL per well) and then A549, H460, OVCAR-3, SGC7901, MDA-MB-231, HCT116 and HepG2 were cultured at 37°Cin an incubator containing 5% CO2. After cell complete attachment, 100 µL of different concentrations of compounds (0.625 μM, 1.25 μM, 2.5μM, 5 μM, 10 μM) were added to the cells after the nutrient solution in each well was discarded, while no compound except 0.1% DMSO was added to cells in the control group; at the same time, each concentration was set up to 5 wells. In addition, 5 wells in each 96-well plate only received 100 µL of nutrient solution as a blank control. The plates were taken out after the cells were incubated with compounds for 24 h, and 20 µL of MTT solution (5 mg/mL) (Wuhan Boster Biotechnology Limited Company, Wuhan, China; item No. AR1156) was added into all the wells. […] When the crystals were fully dissolved, the blank wells were used to zero the plate reader. The optical density (OD) of each well was detected at 490 nm. […]
(In general: Formazan colour is commonly taken as a measure of viable cells.)

For series [1], the system named is P53, caspase-3, bcl-2/bax, cleaved caspase-3. The series can be described thus: Western blot apoptotic proteins, H460. Type of series: cell-based, human. Conditions: H460, 0.5, 1.0, 1.5 μM, 24 h. How it is done: (§1) A549 cells, H460 cells and HUVECs were treated with different concentrations of compound L14e for 24 h. Primary antibodies (100 μL/cm^2): P53(10442-1-AP, Proteintech Group),caspase-3 (19677-1-AP, Proteintech Group), bax (50599-2-lg, Proteintech Group), bcl-2 (12789-1-AP, Proteintech Group), cleaved caspase-3 (25546-1-AP, Proteintech Group), β-actin (60008-1-lg, Proteintech Group), EGFR (ab21074, Abcam), AKT (#2920, Cell Signaling Technology), ERK1/2 (#4370, Cell Signaling Technology), VEGFR-2 (#9698, Cell Signaling Technology), p-EGFR (ab40815, Abcam), p-AKT (#4060, Cell Signaling Technology), p-ERK1/2 (#4695, Cell Signaling Technology), p-VEGFR-2 (#3770, Cell Signaling Technology), and GAPDH (ab181603, Abcam). The cellular levels of proteins were determined by standard Western blotting. Details were given in Supplementary Materials and Methods.
(§2) A549 cells, H460 cells and HUVECs were treated with different concentrations of compound L14e for 24 h, and collected to establish their respective treatment groups. […]
(§3) Extracted proteins were separated from each other using polyacrylamide electrophoresis on a 10 % gel (Beyotime Biotechnology Company, Shanghai, China) and transferred to a polyvinylidene fluoride (PVDF) membrane. […] Gray values of protein bands were quantitatively analyzed, with the gray value of β-actin(GAPDH) band as the reference.
Background: A western blot detects proteins with antibodies after separation by electrophoresis.

The test system of a further series is p-EGFR, p-AKT, p-ERK1/2. In words: Western blot EGFR signaling pathway, H460. To be noted: H460, 0.5, 1.0, 1.5 μM, 24 h, EGF 50 ng/ml. Type of series: cell-based, human. How it is done:
as §1, §2, §3

The nature of series [2]: HPLC analysis of stability in cell culture medium. In kind it is physicochemical. How it is done:
The HPLC system consisted of e2695 Separations Module pump coupled to a 2489 UV/Visible detector (Waters Corp., Milford, MA, USA). Chromatograms was achieved on a Waters BDS C18 column (200 mm × 4.6 mm, 5 um). Detection was performed at a wavelength of 260 nm at 37 °C. The mobile phase consisted of 0.1% phosphoric acid water /methanol (50/50, v/v) at a flow rate of 1.0 mL/min. A10 µL of sample was injected. The results are loaded in the supplemental file.

On to `O=C(Nc1cccc(Cl)c1)Nc1ccccc1NS(=O)(=O)c1c[nH]c(=O)[nH]c1=O` [Compound L14e, N'-(3-chlorophenyl)-2-(2,4-dihydroxypyrimidine-5-sulfonamido)phenyl urea], for which, in the series on H460 cells, the “anti-proliferative potency relative to PTX, H460” value was “nearly five times higher”. Further, the “inhibition of proliferation of H460 cells compared with PTX and compound 10l” value in the series on H460 cells (Fig. 2B(b)) was “significantly more inhibitory”. In addition, in series [1], the “expression of P53, bax, bcl-2, cleaved caspase-3” value is “over expression of P53, up-regulation of bax and down-regulation of bcl-2”. Moreover, in the series on p-EGFR, p-AKT, p-ERK1/2, the “expression of phosphorylated EGFR (Tyr1068) and AKT (Ser473)” value is on record as “significantly reduced”. The “HPLC-UV Measure Concentration” value in series [2] (nominal 0.625 µM, 1h) stood at 0.621 ± 0.005 µM; in series [2] (nominal 0.625 µM, 12h), 0.623 ± 0.001 µM; in series [2] (nominal 0.625 µM, 24h) it was 0.625 ± 0.002 µM; in series [2] (nominal 0.625 µM, 36h) it was 0.625 ± 0.001 µM; in series [2] (nominal 1.25 µM, 1h) it was 1.246 ± 0.005 µM; in series [2] (nominal 1.25 µM, 12h), 1.239 ± 0.003 µM. Also, the “HPLC-UV Measure Concentration” value was found to be 1.253 ± 0.007 µM in series [2] (nominal 1.25 µM, 24h); 1.242 ± 0.009 µM in series [2] (nominal 1.25 µM, 36h); 2.510 ± 0.020 µM in series [2] (nominal 2.5 µM, 1h); 2.506 ± 0.021 µM in series [2] (nominal 2.5 µM, 12h); 2.430 ± 0.002 µM in series [2] (nominal 2.5 µM, 24h); 2.483 ± 0.050 µM in series [2] (nominal 2.5 µM, 36h). Also, the “HPLC-UV Measure Concentration” value was 5.001 ± 0.010 µM in series [2] (nominal 5 µM, 1h); 4.963 ± 0.005 µM in series [2] (nominal 5 µM, 12h); 5.012 ± 0.023 µM in series [2] (nominal 5 µM, 24h); 4.980 ± 0.020 µM in series [2] (nominal 5 µM, 36h); 10.000 ± 0.049 µM in series [2] (nominal 10 µM, 1h); 9.908 ± 0.100 µM in series [2] (nominal 10 µM, 12h). Besides, the “HPLC-UV Measure Concentration” value is 9.930 ± 0.100 µM in series [2] (nominal 10 µM, 24h) and 9.850 ± 0.150 µM in series [2] (nominal 10 µM, 36h).
